ChEMBL document CHEMBL1158709, “Cytotoxic flavanones of Schizolaena hystrix from the Madagascar rainforest” (J Nat Prod, 2005)
Converted amounts (≈) assume the structure as drawn.

The molecules below were run on A2780 (assay: Cytotoxicity against human A2780 cells).
Assay type: functional, cell-based

Row | Compound | IC50
1 | COc1ccc([C@@H]2CC(=O)c3c(cc(O)c(C/C=C(\C)CCC=C(C)C)c3O)O2)cc1 | 17 µg/mL (≈ 40.2 µM)
2 | CC(C)=CCC/C(C)=C/Cc1c(O)cc2c(c1O)C(=O)[C@H](O)[C@@H](c1ccc(O)cc1)O2 [BONANNIOL A] | 25 µg/mL (≈ 58.9 µM)
3 | CC(C)=CCC/C(C)=C/Cc1c(O)cc2c(c1O)C(=O)C[C@@H](c1ccc(O)cc1)O2 [BONANNIONE A] | 12 µg/mL (≈ 29.4 µM)
4 | CC(C)=CCc1cc([C@@H]2CC(=O)c3c(cc(O)c(CC=C(C)C)c3O)O2)ccc1O [MACARANGAFLAVANONE B] | 16 µg/mL (≈ 39.2 µM)
5 | CC(C)=CCC/C(C)=C/Cc1c(O)cc2c(c1O)C(=O)C[C@@H](c1ccc(O)c(O)c1)O2 [NYMPHAEOL A] | 5.5 µg/mL (≈ 13 µM)
6 | CC(C)=CCC/C(C)=C/Cc1cc([C@@H]2CC(=O)c3c(cc(O)c(CC=C(C)C)c3O)O2)ccc1O [SCHIZOLAENONE A] | 10 µg/mL (≈ 21 µM)
7 | CC(C)=CCC/C(C)=C/Cc1cc([C@@H]2CC(=O)c3c(cc(O)c(CC=C(C)C)c3O)O2)cc(O)c1O [SCHIZOLAENONE B] | 11 µg/mL (≈ 22.3 µM)
